In PMC3277864 (Molecular Pharmaceutics, 2011):
Where a SMILES comes first, the peptide text is derived from it. [ ]: non-standard residue; d: D form. The star is where a group is joined. Dolaproine = CO[C@@H]([C@@H]1CCCN1)[C@@H](C)C(=O)O; Dil = CC[C@H](C)[C@H](NC)[C@@H](CC(=O)O)OC; X1 = C[C@@H](N*)[C@@H](O)c1ccccc1; NMeV = CN[C@H](C(=O)O)C(C)C

Key:
BALB/c mice = test: Gross toxicity of mice; type: in vivo, mouse
4T1 mammary carcinoma = conditions: murine breast cancer 4T1 model, 0.5 mg/kg; cited from earlier work
HEK-293L cells = test: Cytotoxicity assay; type: cell-based, human; conditions: 48 hrs incubation
MDA-MB-435 cells [1] = test: Cytotoxicity assay; type: cell-based, human; conditions: 48 hrs incubation
MDA-MB-435 cells [2] = conditions: 72 hrs incubation period; cited from earlier work

For `CC[C@H](C)[C@@H]([C@@H](CC(=O)N1CCC[C@H]1[C@H](OC)[C@@H](C)C(=O)N[C@H](C)[C@@H](O)c1ccccc1)OC)N(C)C(=O)[C@@H](NC(=O)[C@@H](NC)C(C)C)C(C)C` [MMAE, 1, monomethylauristatin E] (H-[NMeV]V[Dil][Dolaproine]-X1), the “Dose beyond which found considerably toxic to mice” value (BALB/c mice) was 0.1 mg/kg, the “Death (%)” value (BALB/c mice; i.p. 5x, dose 0.1 mg/kg) was 20% and the “Wt. loss (%)” value (BALB/c mice; i.p. 5x, dose 0.1 mg/kg, weighed for 3 weeks) was 33.4%. The “Death (%)” value (BALB/c mice; i.p. 5x, dose 0.5 mg/kg) was 100%, the “Death (%)” value (BALB/c mice; i.p. 5x, dose 1.5 mg/kg) was 100% and the “Animal death in 4T1 study” value (4T1 mammary carcinoma) was “all animals died”. For the same molecule, the “In vitro cytotoxicity (comparison in words)” value (HEK-293L cells) was “more potent than the prodrugs 3 and 8”, the “In vitro cytotoxicity (comparison in words)” value (MDA-MB-435 cells [1]) was “more potent than the prodrugs 3 and 8” and the “Activities to MDA-MB-435 cells” value (MDA-MB-435 cells [2]) was “subnanomolar to low nanomolar activities”.
